This note sets out measurements from PubChem BioAssay (NCI).

Each structure is given as a SMILES string. Values joined by “and” are separate entries in the source; they are usually repeats but may differ in a detail not shown here. Identical values can stand only once.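 Grown in 96-well plates, cells were treated for 48 hours with each compound at five concentrations. Insufficient inhibition: endpoint recorded as highest concentration tested. GI50: concentration for 50% inhibition of growth. TGI marks complete inhibition of growth.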

Some test systems named below: SNB-75 CNS; SW-620 colon; MDA-N; EKVX NSCLC; HOP-62 NSCLC; LOX IMVI melanoma; A549 NSCLC; SK-MEL-28 melanoma; SK-MEL-5 melanoma; OVCAR-3 ovarian; NCI-H23 lung; CCRF-CEM leukemia.
Test in all cases: DTP human tumour cell line panel, 48 h

One may read the TGI as the concentration at which net growth stops. Lower therefore signals more potent growth arrest. As to `O=c1cnn(C/C=C/CP(=O)(O)O)c(=O)[nH]1`, the TGI in the test on SNB-75 CNS, with SW-620 colon, in the test on MDA-N, with EKVX NSCLC, with HOP-62 NSCLC and in the test on LOX IMVI melanoma was greater than 100 µM throughout. The TGI with A549 NSCLC, in the test on SK-MEL-28 melanoma, in the test with SK-MEL-5 melanoma, in the test on OVCAR-3 ovarian and in the test on NCI-H23 lung was greater than 100 µM throughout.

On to `CC(C)OP(=O)(OC(C)C)c1nn(-c2ccc([N+](=O)[O-])cc2)c(=N)s1`, for which the TGI in the test on SNB-75 CNS is 95.5 µM; in the test with SW-620 colon, greater than 100 µM; in the test on EKVX NSCLC, greater than 100 µM; with HOP-62 NSCLC, greater than 100 µM; in the test on A549 NSCLC, greater than 100 µM; in the test on SK-MEL-28 melanoma, greater than 100 µM. In addition, the TGI with CCRF-CEM leukemia, in the test on SK-MEL-5 melanoma, with OVCAR-3 ovarian and with NCI-H23 lung was greater than 100 µM in each case.

For the compound `CCOC(=O)c1csc(NC(=O)CN2CCCCC2)n1`, the TGI in the test with SNB-75 CNS, in the test with SW-620 colon, with MDA-N, in the test on EKVX NSCLC, with HOP-62 NSCLC and in the test on LOX IMVI melanoma was greater than 100 µM throughout. Moreover, the TGI with A549 NSCLC, with SK-MEL-28 melanoma, in the test on CCRF-CEM leukemia, in the test on SK-MEL-5 melanoma, in the test with OVCAR-3 ovarian and in the test with NCI-H23 lung was greater than 100 µM in each case.

For `COC1C(=[N+]=[N-])C(=O)NC(=O)N1C1OC(COC(c2ccccc2)(c2ccccc2)c2ccccc2)C(O)C1O` (stereo unspecified), the TGI was 29.5 µM in the test on SNB-75 CNS; 35.8 µM in the test with SW-620 colon; 35.9 µM with EKVX NSCLC; 41.1 µM in the test on HOP-62 NSCLC; 30.1 µM with LOX IMVI melanoma; 31.9 µM in the test on A549 NSCLC. Moreover, the TGI is 31.2 µM with SK-MEL-28 melanoma; 41.6 µM with CCRF-CEM leukemia; 30 µM in the test on SK-MEL-5 melanoma; 32.9 µM with OVCAR-3 ovarian; 34.8 µM in the test with NCI-H23 lung.

As for `OC12c3ccccc3C1CCCCCCCCCC21OCCCO1` (stereo unspecified), the TGI with SNB-75 CNS, in the test with SW-620 colon, in the test with EKVX NSCLC, with HOP-62 NSCLC, with LOX IMVI melanoma and in the test with A549 NSCLC was greater than 100 µM throughout. Further, the TGI with SK-MEL-28 melanoma, in the test on CCRF-CEM leukemia, in the test with SK-MEL-5 melanoma, with OVCAR-3 ovarian and in the test with NCI-H23 lung was greater than 100 µM in each case.

In the case of `COc1cccc(N2C(=O)CSC2c2c[nH]c3ccccc23)c1` (stereo unspecified), the TGI in the test on SNB-75 CNS, in the test on SW-620 colon, with MDA-N, with EKVX NSCLC, in the test with HOP-62 NSCLC and with LOX IMVI melanoma was greater than 100 µM each time. For the same compound, the TGI with SK-MEL-28 melanoma, in the test with CCRF-CEM leukemia, in the test with SK-MEL-5 melanoma, in the test on OVCAR-3 ovarian and in the test on NCI-H23 lung was greater than 100 µM each time.

The GI50 is the concentration at which growth is held to half of that of the control. Regarding `COC(=O)C1C(O)C(C)C(O)C(C)/C=C\C=C(C)C(=O)Nc2c(C)c(OC(C)=O)c3c(c2O)C(=O)C(C)=C2OCOC(=C23)C(C)=CC(C)(O)C(O)C(C)C1O` (stereo unspecified), the GI50 in the test on SNB-75 CNS was 35.3 µM and 5.07 µM; with SW-620 colon, 20.1 µM; in the test with EKVX NSCLC, 48 µM and > 100 µM; in the test with LOX IMVI melanoma, 17.9 µM and 41.3 µM; with SK-MEL-28 melanoma, 21.7 µM; in the test on CCRF-CEM leukemia it was 18.9 µM and 54.7 µM. Also, the GI50 in the test on OVCAR-3 ovarian is 37.8 µM; with NCI-H23 lung, 32.6 µM and > 100 µM. The TGI is greater than 100 µM in the test with SNB-75 CNS; 39.6 µM and > 100 µM in the test with SW-620 colon; greater than 100 µM in the test with MDA-N; 73.7 µM and > 100 µM in the test with EKVX NSCLC; greater than 100 µM in the test on HOP-62 NSCLC; 41 µM and > 100 µM in the test on LOX IMVI melanoma. In addition, the TGI in the test on A549 NSCLC is greater than 100 µM; in the test on SK-MEL-28 melanoma, 44.7 µM and > 100 µM; in the test on CCRF-CEM leukemia it was 50.9 µM and > 100 µM; in the test with SK-MEL-5 melanoma it was 74.5 µM and > 100 µM; in the test on OVCAR-3 ovarian it was > 72 µM and 64.2 µM; with NCI-H23 lung, 58.9 µM and > 100 µM.
